The source of these data is patent US9771379B2, “N-(2-(2-amino-6-substituted-4,4a,5,6-tetrahydropyrano[3,4-d][1,3]OXAZIN-8a(8H)-yl)-thiazol-4-yl) amides” (Pfizer Inc., priority 2015, dated 2017).

The assay has as its target BACE1 enzyme (Homo sapiens (Human), UniProt P56817). As to the kind of experiment: BACE1 Cell-Free Assay. The assay is classed as biochemical. To be noted: for IC50: fluorescence polarization, synthetic APP substrate, pH 4.5; for biological activity: stated in words, used to assign absolute stereochemistry. From the text:
This assay measures the inhibition of the beta-secretase enzyme as it cleaves a non-native peptide.
A synthetic APP substrate that can be cleaved by beta-secretase having N-terminal biotin and made fluorescent by the covalent attachment of Oregon Green at the Cys residue is used to assay beta-secretase activity in the presence or absence of the inhibitory compounds. […] The BACE1 enzyme is affinity purified material from conditioned media of CHO-K1 cells that have been transfected with a soluble BACE construct (BACE1delta™96His). […] Plates are covered and incubated for 3 hours at 37° C. […] The activity of the beta-secretase enzyme is detected by changes in the fluorescence polarization that occur when the substrate is cleaved by the enzyme.

BACE1 enzyme, sequence (P56817 46-457): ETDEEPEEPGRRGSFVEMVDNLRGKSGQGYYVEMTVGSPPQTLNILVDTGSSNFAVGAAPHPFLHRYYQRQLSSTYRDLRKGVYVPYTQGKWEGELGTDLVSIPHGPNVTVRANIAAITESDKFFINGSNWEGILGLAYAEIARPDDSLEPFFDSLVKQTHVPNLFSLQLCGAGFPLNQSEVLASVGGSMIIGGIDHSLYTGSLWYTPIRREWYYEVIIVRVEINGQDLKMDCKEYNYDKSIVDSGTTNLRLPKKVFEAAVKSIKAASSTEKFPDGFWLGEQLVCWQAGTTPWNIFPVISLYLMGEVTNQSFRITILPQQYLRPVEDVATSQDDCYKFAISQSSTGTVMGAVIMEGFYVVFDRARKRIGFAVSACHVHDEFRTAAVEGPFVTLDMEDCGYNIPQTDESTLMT

In turn, `C[C@H]1C[C@H]2COC(N)=N[C@@]2(c2nc(NC(=O)c3ccc(OC(F)F)cn3)cs2)CO1` [Example 1, N-(2-((4aR,6S,8aR)-2-amino-6-methyl-4,4a,5,6-tetrahydropyrano[3,4-d][1,3]oxazin-8a(8H)-yl)thiazol-4-yl)-5-(difluoromethoxy)picolinamide] yielded an IC50 of 214 nM.
On the same count and under the same terms, the value for `C[C@H]1C[C@H]2COC(N)=N[C@@]2(c2nc(NC(=O)c3ncc(OC(F)F)cc3Cl)cs2)CO1` [Example 2, N-(2-((4aR,6S,8aR)-2-amino-6-methyl-4,4a,5,6-tetrahydropyrano[3,4-d][1,3]oxazin-8a(8H)-yl)thiazol-4-yl)-3-chloro-5-(difluoromethoxy)picolinamide] was 123 nM.
With `Cc1cc(OC(F)F)cnc1C(=O)Nc1csc([C@]23CO[C@@H](C)C[C@H]2COC(N)=N3)n1` [Example 3, N-(2-((4aR,6S,8aR)-2-amino-6-methyl-4,4a,5,6-tetrahydropyrano[3,4-d][1,3]oxazin-8a(8H)-yl)thiazol-4-yl)-5-(difluoromethoxy)-3-methylpicolinamide], the IC50 was determined as 85 nM.
Still for that read-out and setting: for `C[C@H]1C[C@H]2CCOC(N)=N[C@@]2(c2nc(NC(=O)c3ccc(OC(F)F)cn3)cs2)CO1` [Example 4, N-(2-((5aR,7S,9aR)-2-amino-7-methyl-5,5a,6,7-tetrahydro-4H-pyrano[3,4-d][1,3]oxazepin-9a(9H)-yl)thiazol-4-yl)-5-(difluoromethoxy)picolinamide] the value was 146 nM; for `Cc1cc(OC(F)F)cnc1C(=O)Nc1csc([C@]23CO[C@@H](C)C[C@H]2CCOC(N)=N3)n1` [Example 5, N-(2-((5aR,7S,9aR)-2-amino-7-methyl-5,5a,6,7-tetrahydro-4H-pyrano[3,4-d][1,3]oxazepin-9a(9H)-yl)thiazol-4-yl)-5-(difluoromethoxy)-3-methylpicolinamide], 71 nM.
Consider `C[C@H]1C[C@H]2[C@@H](CF)OC(N)=N[C@@]2(c2nc(NC(=O)c3ccc(OC(F)F)cn3)cs2)CO1` [Example 6, N-(2-((4S,4aR,6S,8aR)-2-amino-4-(fluoromethyl)-6-methyl-4,4a,5,6-tetrahydropyrano[3,4-d][1,3]oxazin-8a(8H)-yl)thiazol-4-yl)-5-(difluoromethoxy)picolinamide], for which the IC50 was found to be 270 nM.
As to `C[C@H]1C[C@H]2[C@@H](C(F)(F)F)OC(N)=N[C@@]2(c2nc(NC(=O)c3ccc(OC(F)F)cn3)cs2)CO1` [Example 7, N-(2-((4S,4aR,6S,8aR)-2-amino-6-methyl-4-(trifluoromethyl)-4,4a,5,6-tetrahydropyrano[3,4-d][1,3]oxazin-8a(8H)-yl)thiazol-4-yl)-5-(difluoromethoxy)picolinamide], the IC50 was 112 nM.
For `CC1(C)C[C@H]2COC(N)=N[C@@]2(c2nc(NC(=O)c3ccc(OC(F)F)cn3)cs2)CO1` [Example 8, N-(2-((4aR,8aR)-2-Amino-6,6-dimethyl-4,4a,5,6-tetrahydropyrano[3,4-d][1,3]oxazin-8a(8H)-yl)thiazol-4-yl)-5-(difluoromethoxy)picolinamide], the IC50 is 610 nM.
On the same count and under the same terms, for `Cc1cc(OC(F)F)cnc1C(=O)Nc1csc([C@]23COC(C)(C)C[C@H]2COC(N)=N3)n1` [Example 9, N-(2-((4aR,8aR)-2-amino-6,6-dimethyl-4,4a,5,6-tetrahydropyrano[3,4-d][1,3]oxazin-8a(8H)-yl)thiazol-4-yl)-5-(difluoromethoxy)-3-methylpicolinamide] the value was 475 nM.
As for `NC1=N[C@@]2(c3nc(NC(=O)c4ccc(Cl)cn4)cs3)CO[C@@H](C(F)(F)F)C[C@H]2CO1` [Example 10a, N-(2-((4aR,6R,8aR)-2-amino-6-(trifluoromethyl)-4,4a,5,6-tetrahydropyrano[3,4-d][1,3]oxazin-8a(8H)-yl)thiazol-4-yl)-5-chloropicolinamide], the concentration for half-maximal inhibition (IC50) was found to be 310 nM and the biological activity result was “active”.
Turning to `NC1=N[C@]2(c3nc(NC(=O)c4ccc(Cl)cn4)cs3)CO[C@H](C(F)(F)F)C[C@@H]2CO1` [Example 10b, N-(2-((4aS,6S,8aS)-2-amino-6-(trifluoromethyl)-4,4a,5,6-tetrahydropyrano[3,4-d][1,3]oxazin-8a(8H)-yl)thiazol-4-yl)-5-chloropicolinamide], 16700 nM corresponded to half-maximal inhibition (IC50) and the biological activity entry was “inactive”.
Take `Cc1cc(OC(F)F)cnc1C(=O)Nc1csc([C@]23CO[C@@H](C(F)(F)F)C[C@H]2COC(N)=N3)n1` [Example 11a, N-(2-((4aR,6R,8aR)-2-amino-6-(trifluoromethyl)-4,4a,5,6-tetrahydropyrano[3,4-d][1,3]oxazin-8a(8H)-yl)thiazol-4-yl)-5-(difluoromethoxy)-3-methylpicolinamide]: the IC50 is 155 nM.
For `Cc1cc(OC(F)F)cnc1C(=O)Nc1csc([C@@]23CO[C@H](C(F)(F)F)C[C@@H]2COC(N)=N3)n1` [Example 11b, N-(2-((4aS,6S,8aS)-2-amino-6-(trifluoromethyl)-4,4a,5,6-tetrahydropyrano[3,4-d][1,3]oxazin-8a(8H)-yl)thiazol-4-yl)-5-(difluoromethoxy)-3-methylpicolinamide], the midpoint of inhibition, the IC50, lay at 10800 nM.
`NC1=N[C@@]2(c3nc(NC(=O)c4ccc(OC(F)F)cn4)cs3)CO[C@@H](C(F)(F)F)C[C@H]2CO1` [Example 12a, N-(2-((4aR,6R,8aR)-2-amino-6-(trifluoromethyl)-4,4a,5,6-tetrahydropyrano[3,4-d][1,3]oxazin-8a(8H)-yl)thiazol-4-yl)-5-(difluoromethoxy)picolinamide] gave an IC50 of 371 nM.
As to `NC1=N[C@]2(c3nc(NC(=O)c4ccc(OC(F)F)cn4)cs3)CO[C@H](C(F)(F)F)C[C@@H]2CO1` [Example 12b, N-(2-((4aS,6S,8aS)-2-amino-6-(trifluoromethyl)-4,4a,5,6-tetrahydropyrano[3,4-d][1,3]oxazin-8a(8H)-yl)thiazol-4-yl)-5-(difluoromethoxy)picolinamide], the IC50 is 15000 nM.
Take `NC1=N[C@@]2(c3nc(NC(=O)c4ncc(OC(F)F)cc4Cl)cs3)CO[C@@H](C(F)(F)F)C[C@H]2CO1` [Example 13a, N-(2-((4aR,6R,8aR)-2-amino-6-(trifluoromethyl)-4,4a,5,6-tetrahydropyrano[3,4-d][1,3]oxazin-8a(8H)-yl)thiazol-4-yl)-3-chloro-5-(difluoromethoxy)picolinamide]: half-maximal inhibition (IC50) was put at 184 nM and the biological activity result was “active”.
Turning to `NC1=N[C@]2(c3nc(NC(=O)c4ncc(OC(F)F)cc4Cl)cs3)CO[C@H](C(F)(F)F)C[C@@H]2CO1` [Example 13b, N-(2-((4aS,6S,8aS)-2-amino-6-(trifluoromethyl)-4,4a,5,6-tetrahydropyrano[3,4-d][1,3]oxazin-8a(8H)-yl)thiazol-4-yl)-3-chloro-5-(difluoromethoxy)picolinamide], half-maximal inhibition (IC50) was put at 6970 nM and the biological activity entry is “inactive”.
As to `Cc1cc(OC(F)F)cnc1C(=O)Nc1csc([C@]23COC4(CCC4)C[C@H]2COC(N)=N3)n1` [Example 15, N-(2-((4a′R,8a′R)-2′-amino-4a′,5′-dihydro-4′H-spiro[cyclobutane-1,6′-pyrano[3,4-d][1,3]oxazin]-8a′(8′H)-yl)thiazol-4-yl)-5-(difluoromethoxy)-3-methyl picolinamide], the half-maximal inhibitory concentration (IC50) is 370 nM.
The same measure, in the same setting: for `N#Cc1ccc(C(=O)Nc2csc([C@]34COC5(CCC5)C[C@H]3COC(N)=N4)n2)nc1` [Example 16, N-(2-((4a′R,8a′R)-2′-amino-4a′,5′-dihydro-4′H-spiro [cyclobutane-1,6′-pyrano [3,4-d][1,3]oxazin]-8a′(8′H)-yl)thiazol-4-yl)-5-cyano picolinamide] the value was 395 nM; for `NC1=N[C@@]2(c3nc(NC(=O)c4cnc(OC(F)F)cn4)cs3)COC3(CCC3)C[C@H]2CO1` [Example 17, N-(2-((4a′R,8a′R)-2′-amino-4a′,5′-dihydro-4′H-spiro [cyclobutane-1,6′-pyrano [3,4-d][1,3]oxazin]-8a′(8′H)-yl)thiazol-4-yl)-5-(difluoromethoxy)pyrazine-2-carboxamide], 2260 nM; for `NC1=N[C@@]2(c3nc(NC(=O)c4ncc(OC(F)F)cc4Cl)cs3)COC3(CCC3)C[C@H]2CO1` [Example 18, N-(2-((4a′R,8a′R)-2′-amino-4a′,5′-dihydro-4′H-spiro [cyclobutane-1,6′-pyrano[3,4-d][1,3]oxazin]-8a′(8′H)-yl)thiazol-4-yl)-3-chloro-5-(difluoromethoxy) picolinamide], 561 nM.
`Cc1cc(C#N)cnc1C(=O)Nc1csc([C@]23COC4(CCC4)C[C@H]2COC(N)=N3)n1` [Example 19, N-(2-((4a′R,8a′R)-2′-amino-4a′,5′-dihydro-4′H-spiro [cyclobutane-1,6′-pyrano [3,4-d][1,3]oxazin]-8a′(8′H)-yl)thiazol-4-yl)-5-cyano-3-methylpicolinamide] displayed a half-inhibitory concentration (IC50) of 185 nM.
